PubChem BioAssay (NCI)
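Grown in 96-well plates, cells were treated for 48 hours with each compound at five concentrations. Insufficient inhibition: endpoint recorded as highest concentration tested. Here, GI50 denotes the concentration required for 50% inhibition of growth. At the TGI there is no net growth.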

The molecules below were run on MDA-MB-468 breast (assay: growth of human tumour cells (NCI), 48 h).

First: C/C1=C/C(=O)O[C@@H]2C[C@@H](CC[C@H](C)/C=C\C=C\CC1)O[C@@](OCCc1ccccc1)([C@@H]1CSC(=O)N1)C2
Second: C1=C(c2ccccc2)C(c2ccc(OCCN3CCCCC3)cc2)Oc2ccccc21 (configuration not stated)
The GI50 of the first is 53-fold lower: 29.2 nM for the first, 1540 nM for the second.

First: CCCCCCCCCCCCCC(=O)C(C)N (configuration not stated)
Second: CCCCCCNc1nc(N2CCOCC2)c2[nH]c(NCCCCCC)nc2n1
The GI50 of the first is 2.4-fold higher: 3310 nM for the first, 1380 nM for the second.

Going from `CNC(=O)OC1C(O[C@H]2C[C@H]3[C@@H]4CC=C5C[C@@H](O)CC[C@]5(C)[C@H]4CC[C@]3(C)[C@H]2[C@H](C)C(=O)CCC(C)C)OCC(O)C1OC1OCC(O)C(O)C1OC(=O)c1ccc(OC)cc1` (some centres not stated) to `COc1ccc(CC(NC(=O)[C@H](C)NC(=O)CN2CCOCC2)C(=O)N[C@@H](Cc2ccccc2)C(=O)[C@@]2(C)CO2)cc1` (some centres not stated), the GI50 rises from 27 nM to 174 nM (6.4-fold).

First: COc1ccc2c(c1)cn1c3ccc(O)cc3[nH]c(=O)c21
Second: COc1cc(NCc2ccccc2O)c2ncccc2c1
The GI50 of the first is 65-fold lower: 236 nM for the first, 15400 nM for the second.

Going from `Oc1c(I)cc(-c2nc3ccccc3s2)cc1CN(Cc1ccccn1)Cc1ccccn1` to `O=S(=O)(NCCNc1cc(-c2cn(-c3ccccc3)nc2-c2cccc(O)c2)ccn1)c1ccc(Cl)cc1`, the GI50 rises from 531 nM to 2780 nM (5.2-fold).

First: CCOC(=O)N[C@H]1CCc2c(Br)c(OC)c(OC)c(OC)c2-c2ccc(SC)c(=O)cc21
Second: COc1cc(-c2cc(/C=C3\C(=O)Nc4ccccc43)[nH]n2)cc(OC)c1OC
The GI50 of the first is lower: under 10 nM for the first, 2880 nM for the second.

Compared with `O=C(Nc1ccccc1O)c1ccc(CNC(=O)c2sccc2Nc2ccnc(C(F)(F)F)c2)cc1`, `COc1ccc(/C=C/C(=O)c2cc3c(N)c(C(=O)Nc4ccccc4C)sc3nc2C)cc1` is 12-fold lower in GI50: 2010 nM for the first, 167 nM for the second.

Going from `O=C(O)c1cc(Cc2ccc(O)c(C(=O)O)c2)ccc1O` (tested in a mixture with another compound) to `Cc1cc(C)n(C(=O)c2nn(-c3ccc(Cl)cc3)cc2O)n1`, the GI50 rises from 2570 nM to 8900 nM (3.5-fold).

First: CN1CCN(c2ccc(NC3=C(Cl)C(=O)c4ncccc4C3=O)cc2C#N)CC1
Second: Cc1nc2cc(Nc3nc(Nc4ccc(F)cc4)nc(N4CCN(C)CC4)n3)ccc2n1Cc1ccccc1
The GI50 of the first is 3.5-fold lower: 414 nM for the first, 1430 nM for the second.

Compared with `COc1ccc(-c2nnc(N3CCN(C(=O)CN4CCN(c5ccc(Cl)cc5)CC4)CC3)nc2-c2ccc(OC)cc2)cc1`, `COc1cc(C2=NN(c3ccc(S(N)(=O)=O)cc3)C(c3ccc(Cl)cc3)C2)cc(OC)c1OC` (configuration not stated) is 6.2-fold lower in GI50: 17900 nM for the first, 2880 nM for the second.

`CC(C)(C)OC(=O)CN1CCc2c(sc3ncnc(N/N=C/c4cccc5ccccc45)c23)C1` and `CN(C)CCCOc1c2ccccc2nc2c1oc1ccc(Cl)cc12` are within 1.5-fold of each other in GI50: 3900 nM for the first, 2950 nM for the second.

First: CS(=O)(=O)CCn1c(=O)c(Oc2ccc(F)cc2F)cc2cnc(NC3CCOCC3)nc21
Second: Cc1cc(C)cc(Nc2ccc([N+](=O)[O-])c(NCCN3CCOCC3)n2)c1
The GI50 of the first is higher: over 25000 nM for the first, 0.419 nM for the second.

First: C(=C\c1nccc2c1[nH]c1ccccc12)/c1ccccc1
Second: NC(=S)N/N=C\c1nccc2c(N)cccc12
The GI50 of the first is 9-fold higher: 2040 nM for the first, 226 nM for the second.

`CCN(CC)CCOc1ccc2c(c1)C(=O)c1cc(OCCN(CC)CC)ccc1-2` and `Cc1cc2c(-c3ccc(NC(=O)[C@H](N)CC(C)(C)C)cc3C)ccnc2[nH]1` are within 1.5-fold of each other in GI50: 2640 nM for the first, 2730 nM for the second.

`Cc1ccc(C2CC(c3ccc(Nc4nc(NCCO)nc(Nc5ccc(Cl)cc5)n4)cc3)=Nc3c(N)nc(N)nc3N2)cc1` (configuration not stated) and `O=C(CNc1ncco1)Nc1ccc(S(=O)(=O)c2ccc(NC(=O)CNc3ncco3)cc2)cc1` are within 1.5-fold of each other in GI50: 1650 nM for the first, 1440 nM for the second.

`Cc1ccc2c(c1)O/C(=C\c1ccc([N+](=O)[O-])o1)C2=O` and `Cc1cccc2c1O/C(=C\c1ccc([N+](=O)[O-])o1)C2=O` are within 1.5-fold of each other in GI50: 1560 nM for the first, 1290 nM for the second.

Going from `O=C1C(=O)c2ccccc2C(O)=C1CC=C(Cl)Cl` to `C#Cc1cccc(Oc2ccc(NC(=O)CCl)cc2)c1`, the GI50 rises from 15800 nM to 77900 nM (4.9-fold).

First: CC(CN1CCN(CC(C)Nc2ccnc3cc(Cl)ccc23)CC1)Nc1ccnc2cc(Cl)ccc12 (configuration not stated)
Second: C[C@@H](Oc1ccc2[nH]nc(/C=C/c3cnn(CCO)c3)c2c1)c1c(Cl)cncc1Cl
The GI50 of the first is 2.2-fold higher: 2970 nM for the first, 1370 nM for the second.

Going from `Nc1ccc2ccc(NS(=O)(=O)N3CCCCC3)cc2c1` to `[C-]#[N+][C@]12C(=O)[C@H](CCC1(C)C)C(C)(C)[C@H]1C(=O)N(C)c3cccc2c31`, the GI50 rises from 194 nM to 4020 nM (21-fold).

In the case of `CCO/C=N/C1=C(C#N)C(c2ccc(F)cc2)c2sc3c(C)cccc3c2O1` (configuration not stated), the GI50 is reported as 504 nM.

Going from `C/C1=C/C(=O)O[C@@H]2C[C@@H](CC[C@H](C)/C=C\C=C\CC1)O[C@@](OCCc1ccccc1)([C@@H]1CSC(=O)N1)C2` to `C1=C(c2ccccc2)C(c2ccc(OCCN3CCCCC3)cc2)Oc2ccccc21` (configuration not stated), the TGI rises from 135 nM to 3000 nM (22-fold).

Going from `CCCCCCCCCCCCCC(=O)C(C)N` (configuration not stated) to `CCCCCCNc1nc(N2CCOCC2)c2[nH]c(NCCCCCC)nc2n1`, the TGI falls from 9510 nM to 2700 nM (3.5-fold).

First: CNC(=O)OC1C(O[C@H]2C[C@H]3[C@@H]4CC=C5C[C@@H](O)CC[C@]5(C)[C@H]4CC[C@]3(C)[C@H]2[C@H](C)C(=O)CCC(C)C)OCC(O)C1OC1OCC(O)C(O)C1OC(=O)c1ccc(OC)cc1 (some centres not stated)
Second: COc1ccc(CC(NC(=O)[C@H](C)NC(=O)CN2CCOCC2)C(=O)N[C@@H](Cc2ccccc2)C(=O)[C@@]2(C)CO2)cc1 (some centres not stated)
The TGI of the first is 5-fold higher: 2960 nM for the first, 595 nM for the second.

Compared with `COc1ccc2c(c1)cn1c3ccc(O)cc3[nH]c(=O)c21`, `COc1cc(NCc2ccccc2O)c2ncccc2c1` is 46-fold higher in TGI: 1090 nM for the first, 50400 nM for the second.

`Oc1c(I)cc(-c2nc3ccccc3s2)cc1CN(Cc1ccccn1)Cc1ccccn1` and `O=S(=O)(NCCNc1cc(-c2cn(-c3ccccc3)nc2-c2cccc(O)c2)ccn1)c1ccc(Cl)cc1` are within 1.5-fold of each other in TGI: 5250 nM for the first, 7660 nM for the second.

`CCOC(=O)N[C@H]1CCc2c(Br)c(OC)c(OC)c(OC)c2-c2ccc(SC)c(=O)cc21` and `COc1cc(-c2cc(/C=C3\C(=O)Nc4ccccc43)[nH]n2)cc(OC)c1OC` are within 1.5-fold of each other in TGI: 16800 nM for the first, 13400 nM for the second.

Compared with `O=C(Nc1ccccc1O)c1ccc(CNC(=O)c2sccc2Nc2ccnc(C(F)(F)F)c2)cc1`, `COc1ccc(/C=C/C(=O)c2cc3c(N)c(C(=O)Nc4ccccc4C)sc3nc2C)cc1` is higher in TGI: 5900 nM for the first, over 50000 nM for the second.

Compared with `O=C(O)c1cc(Cc2ccc(O)c(C(=O)O)c2)ccc1O` (tested in a mixture with another compound), `Cc1cc(C)n(C(=O)c2nn(-c3ccc(Cl)cc3)cc2O)n1` is higher in TGI: 14400 nM for the first, over 100000 nM for the second.

First: CN1CCN(c2ccc(NC3=C(Cl)C(=O)c4ncccc4C3=O)cc2C#N)CC1
Second: Cc1nc2cc(Nc3nc(Nc4ccc(F)cc4)nc(N4CCN(C)CC4)n3)ccc2n1Cc1ccccc1
The TGI of the first is 1.8-fold lower: 1900 nM for the first, 3440 nM for the second.

Going from `COc1ccc(-c2nnc(N3CCN(C(=O)CN4CCN(c5ccc(Cl)cc5)CC4)CC3)nc2-c2ccc(OC)cc2)cc1` to `COc1cc(C2=NN(c3ccc(S(N)(=O)=O)cc3)C(c3ccc(Cl)cc3)C2)cc(OC)c1OC` (configuration not stated), the TGI rises from 48300 nM to over 100000 nM.

Compared with `CC(C)(C)OC(=O)CN1CCc2c(sc3ncnc(N/N=C/c4cccc5ccccc45)c23)C1`, `CN(C)CCCOc1c2ccccc2nc2c1oc1ccc(Cl)cc12` is 1.9-fold lower in TGI: 16300 nM for the first, 8800 nM for the second.

`CS(=O)(=O)CCn1c(=O)c(Oc2ccc(F)cc2F)cc2cnc(NC3CCOCC3)nc21` and `Nc1ccc2ccc(NS(=O)(=O)N3CCCCC3)cc2c1` cannot be ordered by TGI: over 25000 nM for the first, over 100000 nM for the second.

Compared with `C(=C\c1nccc2c1[nH]c1ccccc12)/c1ccccc1`, `NC(=S)N/N=C\c1nccc2c(N)cccc12` is 11-fold lower in TGI: 7910 nM for the first, 717 nM for the second.

`CCN(CC)CCOc1ccc2c(c1)C(=O)c1cc(OCCN(CC)CC)ccc1-2` and `Cc1cc2c(-c3ccc(NC(=O)[C@H](N)CC(C)(C)C)cc3C)ccnc2[nH]1` are within 1.5-fold of each other in TGI: 8530 nM for the first, 10600 nM for the second.

`Cc1ccc(C2CC(c3ccc(Nc4nc(NCCO)nc(Nc5ccc(Cl)cc5)n4)cc3)=Nc3c(N)nc(N)nc3N2)cc1` (configuration not stated) and `O=C(CNc1ncco1)Nc1ccc(S(=O)(=O)c2ccc(NC(=O)CNc3ncco3)cc2)cc1` are within 1.5-fold of each other in TGI: 3170 nM for the first, 3160 nM for the second.

`Cc1ccc2c(c1)O/C(=C\c1ccc([N+](=O)[O-])o1)C2=O` and `Cc1cccc2c1O/C(=C\c1ccc([N+](=O)[O-])o1)C2=O` are within 1.5-fold of each other in TGI: 3500 nM for the first, 2990 nM for the second.

Going from `O=C1C(=O)c2ccccc2C(O)=C1CC=C(Cl)Cl` to `C#Cc1cccc(Oc2ccc(NC(=O)CCl)cc2)c1`, the TGI rises from 59000 nM to over 82500 nM.

Compared with `CC(CN1CCN(CC(C)Nc2ccnc3cc(Cl)ccc23)CC1)Nc1ccnc2cc(Cl)ccc12` (configuration not stated), `C[C@@H](Oc1ccc2[nH]nc(/C=C/c3cnn(CCO)c3)c2c1)c1c(Cl)cncc1Cl` is 3.1-fold lower in TGI: 9550 nM for the first, 3110 nM for the second.

Going from `[C-]#[N+][C@]12C(=O)[C@H](CCC1(C)C)C(C)(C)[C@H]1C(=O)N(C)c3cccc2c31` to `CCO/C=N/C1=C(C#N)C(c2ccc(F)cc2)c2sc3c(C)cccc3c2O1` (configuration not stated), the TGI falls from over 100000 nM to 17100 nM.
